Source: paper PMC8228537, “Acrylonitrile Derivatives against Trypanosoma cruzi: In Vitro Activity and Programmed Cell Death Study” (Pharmaceuticals, 2021)
Entries after “also recorded” stand apart in the source; their conditions may differ.

What was measured:
[1] = system: epimastigote stage of T. cruzi; assay: Antiparasitic activity, alamarBlue, epimastigotes; assay type: cell-based, Trypanosoma cruzi; conditions: for IC50: 72 h, epimastigote stage of T. cruzi (Y strain), alamarBlue, mean ± SD, NA: not active; for Selectivity index (SI): ratio of CC50 for J774A.1 and IC50 for epimastigotes of T. cruzi
Procedure: Epimastigotes of Trypanosoma cruzi (Y strain) were used in this study and cultured in liver infusion tryptose (LIT) medium supplemented with 10% of foetal bovine serum (FBS) at 26 °C.
In a sterile 96-well plate, a serial dilution of acrylonitriles was carried out in LIT medium supplemented with 10% FBS with a final volume of 100 µL. Parasites were added to wells to reach a concentration of 10^5 parasites per well. Finally, a 10% of alamarBlue Cell Viability Reagent® (ThermoFisher Scientific, Waltham, MA, USA) was added into each well, and the plate was incubated for 72 h at 26°C.

[2] = Cytotoxicity, alamarBlue, murine macrophages; assay type: cell-based; conditions: mouse, J774A.1 murine macrophage cell line, J774A.1 murine macrophages, mean ± SD
Procedure: The cytotoxicity was evaluated against murine macrophages (J774A.1) using the same method mentioned in the antiparasitic assay, based on the alamarBlue Cell Viability Reagent®. In a sterile 96-well plate, 10^4 cells per well were added, then, after the complete adhesion, serial dilutions of the 32 compounds, using a deep well plate, and a 10% of alamarBlue® were joined.

[3] = system: epimastigotes of Trypanosoma cruzi; assay: Reactive oxygen species analysis (CellROX Deep Red); assay type: cell-based; conditions: 24 h with the IC90, Figure 5
Procedure: The CellROX® reagent emits red fluorescence in the presence of reactive oxygen species.
The oxidative stress was measured with the CellROX® Deep Red Reagent (ThermoFisher Scientific, MA, USA). […] Finally, the fluorescence was analyzed using the EVOS® FL Cell Imaging System (ThermoFisher Scientific, MA, USA) with the Cy5 light cube.

[4] = system: epimastigotes of Trypanosoma cruzi; assay: Chromatin condensation analysis (Hoechst 33342/propidium iodide); assay type: cell-based; conditions: 24 h with the IC90, Figure 1
Procedure: Vybrant® Apoptosis Assay Kit n°5, Hoechst 33342/Propidium Iodide (ThermoFisher Scientific, MA, USA) was used to determinate the chromatin condensation of the treated parasites. […] Thereafter, Hoechst (5 µg/mL) and propidium iodide (PI) (1 µg/mL) were added and incubated for 20 min at 26 °C. The EVOS® FL Cell Imaging System (ThermoFisher Scientific, MA, USA) was used to capture the fluorescence images, using the DAPI (Hoechst) and RFP (PI) light cubes.

[5] = system: epimastigotes of Trypanosoma cruzi; assay: ATP level analysis (CellTiter-Glo); assay type: cell-based; conditions: 24 h with the IC90, CellTiter-Glo, Figure 3
Procedure: Variations in the level of ATP were measured with the CellTiter-Glo® Luminescent Cell Viability Assay (Promega, WI, USA). […] Then, in a white 96-well plate, the epimastigotes were resuspended in 25µL of culture media and mixed with 25 µL of the kit. After 10 min of incubation at room temperature, the luminescence was measured using an EnSpire Multimode Plate Reader® (PerkinElmer). The results were expressed in percentage of production of ATP level relative to the negative control (without any treatment).

Trypanosoma cruzi = assay: Programmed cell death study (overall conclusion from the PCD assays); assay type: cell-based; conditions: overall conclusion from ROS, mitochondrial potential, ATP and chromatin condensation assays
Procedure: Different assays were performed to elucidate which pathways could be triggered by these acrylonitriles. The most probable cellular process induced by our compounds is the apoptosis or programmed cell death (PCD), in which the inflammatory response is weakly activated, in contrast to a necrotic event, where the inflammatory response is strong.

[6] = system: epimastigotes of Trypanosoma cruzi; assay: Plasmatic membrane permeability analysis (SYTOX Green); assay type: cell-based; conditions: 24 h with the IC90, Figure 4
Procedure: The use of the dye SYTOX® Green reagent means that when the plasmatic permeability is altered, it is possible for the reagent to go inside the cells, joining the parasitic DNA and emitting an intense green fluorescence.
To determine the plasmatic membrane permeability, SYTOX® Green nucleic acid stain fluorescent dye (ThermoFisher Scientific, MA, USA) was used. […] The pellet was resuspended in a 50 µL staining buffer and the Sytox® Green at 1 µM (final concentration). After 15 min of incubation at room temperature, parasites were analyzed. Fluorescence pictures were taken with the EVOS® FL Cell Imaging System (ThermoFisher Scientific, MA, USA).

| SMILES | IC50 ([1]; Trypanosoma cruzi) [µM] | Selectivity index (SI) [1] | CC50 at 24 h [2] [µM] | Reactive oxygen species (CellROX Deep Red fluorescence) [3] | Dead cells (propidium iodide red fluorescence) [4] | IC50 [1] [µM] | Percentage of ATP level relative to untreated control [5] [%] | Chromatin condensation (Hoechst 33342 blue fluorescence) [4] | Induction of programmed cell death (apoptosis-like process) (Trypanosoma cruzi) | Plasma membrane permeability (SYTOX Green fluorescence) [6] |
| --- | --- | --- | --- | --- | --- | --- | --- | --- | --- | --- |
| CCCCCCCCOC(=O)/C=C\C#N [Compound Q6, (Z)-Octyl 3-cyanoacrylate] | 51.9 ± 7.69 | 0.55 | 28.8 ± 2.53 |  |  |  |  |  |  |  |
| CCOP(=O)(/C=C/C#N)OCC [Compound Q18, (E)-Diethyl 2-cyanovinylphosphonate] |  |  |  | less intense fluorescence | red fluorescence, indicating already dead cells | 14.8 ± 3.06 |  |  |  |  |
| CCOC(=O)/C=C\C#N [Compound Q4, (Z)-Ethyl 3-cyanoacrylate] | 47.3 ± 10.6 | 0.91 | 43.2 ± 9.83 |  |  |  |  |  |  |  |
| N#C/C=C\C(=O)c1cccs1 [Compound Q14, (Z)-4-Oxo-4-(thiophen-2-yl)but-2-enenitrile] | 26.5 ± 2.83 |  | 8.39 ± 0.25 |  |  |  |  |  |  |  |
| N#C/C=C/C(=O)c1ccco1 [Compound Q15, (E)-4-(Furan-2-yl)-4-oxobut-2-enenitrile] | 32.9 ± 0.83 | 0.20 | 6.66 ± 1.77 |  |  |  |  |  |  |  |
| N#C/C=C/P(=O)(c1ccccc1)c1ccccc1 [Compound Q19, (E)-3-(diphenylphosphoryl)acrylonitrile] | 14.6 ± 3.44 |  | 22.2 ± 3.24 |  | red fluorescence, indicating already dead cells |  | 30.78 | intense blue fluorescence in the nucleus, indicating chromatin condensation | robust evidence of inducing all the physiological features of an apoptosis-like process | more remarkable |
| N#C/C=C/C(=O)CCc1ccccc1 [Compound Q17, (E)-4-Oxo-6-phenylhex-2-enenitrile] | 14.1 ± 2.53 | 0.37 | 5.24 ± 0.7 |  |  |  |  |  |  |  |
| CCCCCC(=O)/C=C/C#N [Compound Q10, (E)-4-Oxonon-2-enenitrile] | 11 ± 1.38 | 0.92 | 10.1 ± 1.46 |  |  |  |  |  |  |  |
| CON(C)C(=O)/C=C/C#N [Compound Q27, (E)-3-Cyano-N-methoxy-N-methylacrylamide] | 291 ± 47 |  | 480 ± 29.1 | less intense fluorescence | red fluorescence, indicating already dead cells |  | < 1 |  | robust evidence of inducing all the physiological features of an apoptosis-like process | more remarkable |
| CCOC(=O)/C=C/C#N [Compound Q3, (E)-Ethyl 3-cyanoacrylate] | 46.4 ± 5.73 |  | 86.7 ± 22.8 | most intense red fluorescence |  |  |  |  | did not show evidence of causing a programmed cell death mechanism |  |
| COC(=O)/C=C/C#N [Compound Q1, (E)-Methyl 3-cyanoacrylate] | 17.4 ± 4.75 |  | 87.4 ± 7.02 |  |  |  |  |  | did not show evidence of causing a programmed cell death mechanism |  |
| N#C/C=C/C(=O)c1cccs1 [Compound Q13, (E)-4-Oxo-4-(thiophen-2-yl)but-2-enenitrile] | 25 ± 0.62 | 0.34 | 8.52 ± 0.04 |  |  |  |  |  |  |  |
| Cc1ccc(S(=O)(=O)/C=C/C#N)cc1 [Compound Q21, (E)-3-Tosylacrylonitrile] | 3.86 ± 0.67 | 0.83 |  |  |  |  |  |  |  |  |
| N#C/C=C/C(=O)Oc1ccccc1 [Compound Q7, (E)-phenyl 3-cyanoacrylate] | 15.5 ± 1.27 |  | 46.5 ± 3.81 | less intense fluorescence | red fluorescence, indicating already dead cells |  | 32.68 | intense blue fluorescence in the nucleus, indicating chromatin condensation | robust evidence of inducing all the physiological features of an apoptosis-like process; also recorded: shown to induce an apoptosis-like cell death | more remarkable |
| N#C/C=C/C(=O)N1CCCC1 [Compound Q25, (E)-4-Oxo-4-(pyrrolidin-1-yl)but-2-enenitrile] | 154 ± 19.8 |  | 374 ± 47.9 |  |  |  |  |  | did not show evidence of causing a programmed cell death mechanism |  |
| CON(C)C(=O)/C=C\C#N [Compound Q28, (Z)-3-Cyano-N-methoxy-N-methylacrylamide] |  |  | 210 ± 8.99 |  |  |  |  |  |  |  |
| COC(=O)/C=C\C#N [Compound Q2, (Z)-Methyl 3-cyanoacrylate] | 25.9 ± 2.78 |  | 112 ± 15.8 |  |  |  |  |  | did not show evidence of causing a programmed cell death mechanism |  |
| N#C/C=C\C(=O)Oc1ccccc1 [Compound Q8, (Z)-phenyl 3-cyanoacrylate] | 4.36 ± 0.26 |  | 52.9 ± 4.51 | less intense fluorescence |  |  |  |  | shown to induce an apoptosis-like cell death |  |
| N#C/C=C/C(=O)c1ccccc1 [Compound Q11, (E)-4-Oxo-4-phenylbut-2-enenitrile] | 5.53 ± 1.36 | 0.94 | 5.22 ± 1.02 |  |  |  |  |  |  |  |
| N#C/C=C\C(=O)c1ccccc1 [Compound Q12, (Z)-4-Oxo-4-phenylbut-2-enenitrile] | 20.9 ± 4.61 | 0.36 | 7.64 ± 1.21 |  |  |  |  |  |  |  |
| N#C/C=C\P(=O)(c1ccccc1)c1ccccc1 [Compound Q20, (Z)-3-(diphenylphosphoryl)acrylonitrile] | 49.1 ± 1.12 | 1.03 | 50.6 ± 10.8 |  |  |  |  |  |  |  |
| N#C/C=C/C(=O)C1CCCCC1 [Compound Q16, (E)-4-Cyclohexyl-4-oxobut-2-enenitrile] | 7.65 ± 1.51 | 0.57 | 4.35 ± 0.25 |  |  |  |  |  |  |  |
| CCCCCCCCOC(=O)/C=C/C#N [Compound Q5, (E)-Octyl 3-cyanoacrylate] | 34.3 ± 1.67 |  | 53.9 ± 12.8 | less intense fluorescence | red fluorescence, indicating already dead cells |  |  | intense blue fluorescence in the nucleus, indicating chromatin condensation | robust evidence of inducing all the physiological features of an apoptosis-like process | more remarkable |
| CN(C(=O)/C=C/C#N)c1ccccc1 [Compound Q29, (E)-3-Cyano-N-methyl-N-phenylacrylamide] | 138 ± 14 |  | 327.9 ± 2.85 | less intense fluorescence | red fluorescence, indicating already dead cells |  | < 1 | intense blue fluorescence in the nucleus, indicating chromatin condensation | robust evidence of inducing all the physiological features of an apoptosis-like process | more remarkable |
